Results taken from publication PMC7922932, “Molecular Dissection of Escherichia coli CpdB: Roles of the N Domain in Catalysis and Phosphate Inhibition, and of the C Domain in Substrate Specificity and Adenosine Inhibition” (International Journal of Molecular Sciences, 2021).
Several values for one entry are separate records, joined by “and”; a condition that tells them apart may be missing. Equal entries are not always repeated. Where two headings read alike, the source gives them in different places.

What was measured:
[1] = biological target: T1, CpdB_Ndom (N-terminal domain of CpdB) (Escherichia coli, UniProt P08331, D305N/I97V/M87I); assay type: biochemical; settings: for K M / k cat / k cat /K M: CpdB_Ndom, substance is the substrate, mean ± SD of three experiments; for Activity of CpdB_Ndom on substrate (hydrolytic rate): fixed 750 µM substrate concentration
T1 construct: GST (N, cleaved yes); made in house; host or cells: E. coli BL21
Protocol: With all the detectably hydrolyzed substrates, saturation kinetics was studied and parameters kcat and KM were determined from Michaelis-Menten plots (Table 1).
The same assay was used with 2′,3′- or 3′,5′-cyclic nucleotides, CDP-choline and bis-4-NPP except that an excess of alkaline phosphatase was included in the reaction mixture as auxiliary enzyme.
Datasets obtained with different substrates in the absence of inhibitors were used to derive kcat and KM values by adjusting the Michaelis-Menten equation to the experimental points by non-linear regression.

His^117Ala-CpdB = biological target: T2, His^117Ala-CpdB (Escherichia coli, UniProt P08331, D305N/H117A/I514V/I97V/M87I/N471D/S472N); assay type: biochemical; settings: for Catalytic efficiency (kcat/KM) lower than wild-type mature CpdB: His^117Ala-CpdB versus wild-type mature CpdB, same substrate; for K M / k cat / k cat /K M: His^117Ala-CpdB, substance is the substrate
T2 construct: A structural model of mature CpdB (aa 20–647) was built; GST (N, cleaved yes); made in house; host or cells: E. coli BL21
From the text: (§1) The role of the possible catalytic and substrate-binding sites was additionally tested by the preparation of two point mutants of the mature CpdB protein. On the one hand, the mutation His^117Ala modified the histidine residue conserved in the N domain (Figure 1b) with respect to UshA, where it has been proposed to be part of the catalytic core structure and to act as a general base that facilitates the nucleophilic attack by deprotonating a water molecule, and to participate in the stabilization of the transition state. […] On the other hand, mutation Tyr^544Ala modified one of the aromatic residues of CpdB which are conserved in the C domain with respect to the UshA phenylalanine residues that form a stacked sandwich with the adenine ring of the substrate.

Tyr^544Ala-CpdB [2] = biological target: T3, Tyr^544Ala-CpdB (Escherichia coli, UniProt P08331, D305N/I514V/I97V/M87I/N471D/S472N/Y544A); assay type: biochemical; settings: Tyr^544Ala-CpdB; substance is the substrate
T3 construct: A structural model of mature CpdB (aa 20–647) was built; GST (N, cleaved yes); made in house; host or cells: E. coli BL21
From the text: as §1

Tyr^544Ala-CpdB [3] = assay type: biochemical, Escherichia coli; settings: Tyr^544Ala-CpdB versus wild-type mature CpdB
From the text: as §1

CpdB_Ndom [4] = biological target: T4, CpdB_Ndom (Escherichia coli, UniProt P08331, D305N/I97V/M87I); assay: biochemical; settings: CpdB_Ndom; substrate bis-4-NPP; global fit, complete competitive inhibition (Figure 7); read-out: Inhibition constant (Ki)
T4 construct: GST (N, cleaved yes); made in house; host or cells: E. coli BL21
Protocol: Substrate saturation experiments were run in the absence and the presence of one of these inhibitors at fixed concentrations (Figure 7).
(§2) Reaction mixtures of 100 µL contained, besides the needed amount of enzyme (i.e., 0.02–0.05 µg/mL of mature CpdB, 2 µg/mL of a CpdB point mutant, or 0.2 µg/mL of CpdB_Ndom), 50 mM Tris [Tris(hydroxymethyl)aminomethane]-HCl pH 7.5 (adjusted at 37 °C), 2 mM MnCl2, 0.1 mg/mL bovine serum albumin, and the indicated concentrations of bis-4-NPP and the compound tested as inhibitor. Incubations performed at 37 °C were stopped by addition of 0.5 mL of 200 mM Tris, pH 8.9, 5 mM EDTA (ethylenediaminetetraacetate), immediately followed by A405 measurement (ε = 18.1 mM^−1 cm^−1). This termination procedure was used instead of the addition of a high NaOH concentration, to avoid the known formation of brown precipitates of air-oxidized Mn^2+ hydroxide. On occasions, when a higher sensitivity was needed, reaction mixtures of 500 µL were implemented and termination was performed with 0.1 mL 1M Tris, pH 8.9, 30 mM EDTA.

CpdB_Ndom [5] = biological target: T4, CpdB_Ndom; assay: Products of the hydrolysis of cyclic (di)nucleotides by CpdB_Ndom (HPLC); assay type: biochemical; settings: 2′,3′-cAMP at 500 µM
From the text: (§3) The procedures and detailed conditions to measure the initial rates of phosphohydrolytic reactions were as earlier described [4]. […] The same assay was used with 2′,3′- or 3′,5′-cyclic nucleotides, CDP-choline and bis-4-NPP except that an excess of alkaline phosphatase was included in the reaction mixture as auxiliary enzyme.

CpdB_Ndom [6] = biological target: T4, CpdB_Ndom; assay type: biochemical; settings: CpdB_Ndom; for IC50: 750 µM bis-4-NPP as the substrate, single illustrative experiments; for Ki: substrate bis-4-NPP, estimated from inhibitor dose-response curves (Figure 6), read-out: Inhibition constant (Ki)
Mature CpdB [7] = biological target: T5, Mature CpdB (Escherichia coli, UniProt P08331); assay: biochemical; assay type: biochemical; design: A structural model of mature CpdB (aa 20–647) was built; GST (N, cleaved yes); made in house; host or cells: E. coli BL21; settings: mature CpdB; for IC50: 750 µM bis-4-NPP as the substrate, single illustrative experiments, read-out: IC50; for Ki: substrate bis-4-NPP, global fit, mixed partial inhibition (Figure 5), values without SD are single experiments, read-out: Inhibition constant (Ki)
Protocol: as §2

Mature CpdB [8] = biological target: T5, Mature CpdB; design: A structural model of mature CpdB (aa 20–647) was built; GST (N, cleaved yes); made in house; host or cells: E. coli BL21; settings: substance is the substrate; cited from earlier work
Mature CpdB [9] = biological target: T5, Mature CpdB; settings: for Ki: read-out: Inhibition constant (Ki), mature CpdB, substrate 3′-AMP, global fit, mixed partial inhibition (Figure 5)
From the text: In this approach, inhibitors were used as probes for the relevance of those enzyme sites, irrespective of the physiological character and concentrations of the compounds used.
as §3
The procedures followed to derive kinetic parameters kcat, KM and Ki from initial rate vs. substrate concentration datasets, either in the presence or the absence of inhibitor, were as described elsewhere [49]. Datasets obtained with different substrates in the absence of inhibitors were used to derive kcat and KM values by adjusting the Michaelis-Menten equation to the experimental points by non-linear regression. […] Each one of these equations was simultaneously adjusted (global fit) by nonlinear regression to the three saturation curves of each inhibition experiment, using the Solver function of Microsoft Excel. During the adjustments, Vmax, KM and Ki were left to fluctuate. […] In each set of experiments, the type of inhibition that gave the best fit was used as the model to estimate Ki values.

T2 sequence (P08331 20-647 M87I/I97V/H117A/D305N/N471D/S472N/I514V): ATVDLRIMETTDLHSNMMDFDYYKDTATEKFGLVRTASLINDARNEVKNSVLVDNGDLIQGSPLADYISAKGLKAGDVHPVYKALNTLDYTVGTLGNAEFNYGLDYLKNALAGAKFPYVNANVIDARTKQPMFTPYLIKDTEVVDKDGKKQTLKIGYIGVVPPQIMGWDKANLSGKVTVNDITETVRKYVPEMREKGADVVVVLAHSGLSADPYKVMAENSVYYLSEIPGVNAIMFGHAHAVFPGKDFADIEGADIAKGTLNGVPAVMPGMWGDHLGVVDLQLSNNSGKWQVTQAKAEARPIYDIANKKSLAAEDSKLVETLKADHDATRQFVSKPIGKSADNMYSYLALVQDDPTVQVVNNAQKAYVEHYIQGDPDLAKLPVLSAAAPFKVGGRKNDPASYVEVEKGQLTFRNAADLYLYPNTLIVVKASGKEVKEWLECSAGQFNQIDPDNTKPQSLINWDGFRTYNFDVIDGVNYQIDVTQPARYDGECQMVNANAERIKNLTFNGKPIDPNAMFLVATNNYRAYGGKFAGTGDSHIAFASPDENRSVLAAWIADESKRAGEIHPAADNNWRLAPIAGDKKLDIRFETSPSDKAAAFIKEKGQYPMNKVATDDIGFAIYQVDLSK
T5 sequence (P08331 20-647): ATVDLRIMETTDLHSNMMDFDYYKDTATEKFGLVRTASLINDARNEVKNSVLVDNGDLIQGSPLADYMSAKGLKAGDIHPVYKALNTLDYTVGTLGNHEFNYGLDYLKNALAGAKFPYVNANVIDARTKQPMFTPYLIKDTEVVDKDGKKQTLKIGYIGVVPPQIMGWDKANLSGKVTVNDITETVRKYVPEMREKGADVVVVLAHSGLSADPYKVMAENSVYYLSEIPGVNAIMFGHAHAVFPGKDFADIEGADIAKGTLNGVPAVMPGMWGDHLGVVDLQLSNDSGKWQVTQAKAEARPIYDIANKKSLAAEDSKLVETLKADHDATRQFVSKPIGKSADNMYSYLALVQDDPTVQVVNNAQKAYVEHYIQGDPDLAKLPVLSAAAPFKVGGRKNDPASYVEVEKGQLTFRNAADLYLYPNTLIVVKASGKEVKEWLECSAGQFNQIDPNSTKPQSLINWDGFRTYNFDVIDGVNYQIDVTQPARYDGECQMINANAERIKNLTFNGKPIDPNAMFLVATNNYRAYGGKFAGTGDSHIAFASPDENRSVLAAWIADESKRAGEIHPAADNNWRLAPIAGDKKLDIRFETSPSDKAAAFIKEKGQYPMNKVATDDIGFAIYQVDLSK
T3 sequence (P08331 20-647 M87I/I97V/D305N/N471D/S472N/I514V/Y544A): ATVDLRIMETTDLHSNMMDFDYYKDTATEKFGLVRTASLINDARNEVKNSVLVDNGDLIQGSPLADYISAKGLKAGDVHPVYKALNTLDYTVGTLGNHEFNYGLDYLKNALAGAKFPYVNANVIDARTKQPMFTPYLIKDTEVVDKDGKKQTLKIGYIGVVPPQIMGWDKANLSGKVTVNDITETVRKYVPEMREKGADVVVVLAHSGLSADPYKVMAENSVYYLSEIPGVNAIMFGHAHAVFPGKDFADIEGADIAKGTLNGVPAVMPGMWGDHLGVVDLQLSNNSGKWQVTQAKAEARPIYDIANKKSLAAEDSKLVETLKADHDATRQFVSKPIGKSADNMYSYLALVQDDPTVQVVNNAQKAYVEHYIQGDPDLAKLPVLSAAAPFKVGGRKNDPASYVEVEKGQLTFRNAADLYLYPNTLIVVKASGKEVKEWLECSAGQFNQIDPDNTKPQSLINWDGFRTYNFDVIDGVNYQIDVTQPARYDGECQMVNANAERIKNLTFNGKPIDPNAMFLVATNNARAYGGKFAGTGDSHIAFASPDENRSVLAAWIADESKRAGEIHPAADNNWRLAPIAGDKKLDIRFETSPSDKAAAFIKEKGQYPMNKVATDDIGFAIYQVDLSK
T4 sequence (P08331 20-354 M87I/I97V/D305N): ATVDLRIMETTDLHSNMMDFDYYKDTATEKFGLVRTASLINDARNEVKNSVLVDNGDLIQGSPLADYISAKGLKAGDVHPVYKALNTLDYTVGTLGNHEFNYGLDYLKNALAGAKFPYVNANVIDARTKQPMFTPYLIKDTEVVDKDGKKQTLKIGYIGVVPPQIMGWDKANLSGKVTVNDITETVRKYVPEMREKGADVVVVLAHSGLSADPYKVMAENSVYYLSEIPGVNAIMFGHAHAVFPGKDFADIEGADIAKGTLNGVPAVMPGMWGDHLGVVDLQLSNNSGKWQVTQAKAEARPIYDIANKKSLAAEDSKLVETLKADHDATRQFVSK
T1 sequence (P08331 20-354 M87I/I97V/D305N): as above

Compound | K M [1] | k cat [1] | k cat /K M [1] | IC50 (CpdB_Ndom [6]) | IC50 (Mature CpdB [7]) | Ki (Mature CpdB [7]) | K M (Mature CpdB [8]) | k cat (Mature CpdB [8]) | k cat /K M (catalytic efficiency) (Mature CpdB [8]) | other results
Nc1ncnc2c1ncn2[C@@H]1O[C@H](CO)[C@H]2OP(=O)(O)O[C@H]21 [2′,3′-cAMP] | 390 ± 170 µM | 73 ± 32 s⁻¹ | 190,000 ± 13,000 M^−1 s^−1 | 840 µM | 56 µM | 5 ± 0.4 µM | 27 µM | 190 s⁻¹ | 7,300,000 M^−1 s^−1 | Catalytic efficiency (kcat/KM) lower than wild-type mature CpdB (His^117Ala-CpdB): 5000 fold; K M (His^117Ala-CpdB): 126 ± 7 µM; k cat (His^117Ala-CpdB): 0.18 ± 0.02 s⁻¹; k cat /K M (His^117Ala-CpdB): 1500 ± 230 M⁻¹ s⁻¹; K M (Tyr^544Ala-CpdB [2]): 1600 ± 550 µM; k cat (Tyr^544Ala-CpdB [2]): 190 ± 60 s⁻¹; k cat /K M (Tyr^544Ala-CpdB [2]): 140,000 ± 73,000 M^−1 s^−1; KM increase by the Tyr^544Ala mutation (Tyr^544Ala-CpdB [3]): 60 fold; Ki (CpdB_Ndom [4]): 460 ± 50 µM; 2′-AMP as product of hydrolysis (CpdB_Ndom [5]): 15%; 3′-AMP as product of hydrolysis (CpdB_Ndom [5]): 85%
Nc1ccn([C@@H]2O[C@H](CO)[C@H]3OP(=O)(O)O[C@H]32)c(=O)n1 [2′,3′-cCMP] | 180 ± 50 µM | 33 ± 5 s⁻¹ | 200,000 ± 80,000 M^−1 s^−1 |  |  |  | 12 µM | 100 s⁻¹ | 8,500,000 M^−1 s^−1 | 
Nc1nc2c(ncn2[C@@H]2O[C@H](CO)[C@H]3OP(=O)(O)O[C@H]32)c(=O)[nH]1 [2′,3′-cGMP] | 570 ± 160 µM | 58 ± 16 s⁻¹ | 100,000 ± 13,000 M^−1 s^−1 |  |  |  | 25 µM | 84 s⁻¹ | 3,500,000 M^−1 s^−1 | 
O=c1ccn([C@@H]2O[C@H](CO)[C@H]3OP(=O)(O)O[C@H]32)c(=O)[nH]1 [2′,3′-cUMP] | 630 ± 170 µM | 155 ± 32 s⁻¹ | 250,000 ± 50,000 M^−1 s^−1 |  |  |  | 62 µM | 260 s⁻¹ | 4,200,000 M^−1 s^−1 | 
Nc1ncnc2c1ncn2[C@@H]1O[C@H](CO)[C@@H](O)[C@H]1OP(=O)(O)O [2′-AMP] |  |  |  | 920 µM | 100 µM | 8.8 ± 2 µM |  |  |  | Activity of CpdB_Ndom on substrate (hydrolytic rate) [1]: absence of detectable activity; IC50 (Mature CpdB [9]): 320 µM; Ki (Mature CpdB [9]): 7.1 ± 3.2 µM; Ki (CpdB_Ndom [6]): 600 µM
Nc1ncnc2c1ncn2[C@@H]1O[C@@H]2COP(=O)(O)O[C@H]2[C@H]1O [3′,5′-cAMP] | 6900 ± 2600 µM |  |  |  |  |  | 4600 µM |  |  | 
Nc1ncnc2c1ncn2[C@@H]1O[C@H](CO)[C@@H](OP(=O)(O)O)[C@H]1O [3′-AMP] | 880 ± 250 µM | 0.004 ± 0.0002 s⁻¹ | 5 M⁻¹ s⁻¹ and 5.2 ± 1.0 M⁻¹ s⁻¹ | 4100 µM | 54 µM | 3.6 ± 0.2 µM | 14 µM | 176 s⁻¹ |  | Stronger loss of catalytic efficiency than on 2′,3′-cAMP caused by the deletion of the C domain ([1]; CpdB_Ndom versus mature CpdB): 10^5 fold; Activity of CpdB_Ndom on substrate (hydrolytic rate) [1]: almost complete loss of activities; Activity of His^117Ala-CpdB on substrate (His^117Ala-CpdB): essentially inactive; K M (Tyr^544Ala-CpdB [2]): 850 ± 110 µM; k cat (Tyr^544Ala-CpdB [2]): 160 ± 37 s⁻¹; KM increase by the Tyr^544Ala mutation (Tyr^544Ala-CpdB [3]): 60 fold; Ki (CpdB_Ndom [4]): 3300 ± 550 µM
Nc1ncnc2c1ncn2[C@@H]1O[C@H](COP(=O)(O)O)[C@@H](O)[C@H]1O [5′-AMP] |  |  |  | 560 µM | 110 µM | 14 µM |  |  |  | Activity of CpdB_Ndom on substrate (hydrolytic rate) [1]: absence of detectable activity; Ki (CpdB_Ndom [4]): 370 ± 50 µM; IC50 (Mature CpdB [9]): 900 µM; Ki (Mature CpdB [9]): 20 ± 8 µM
Nc1ncnc2c1ncn2[C@@H]1O[C@H](COP(=O)(O)OP(=O)(O)O)[C@@H](O)[C@H]1O [ADP] |  |  |  |  | 1100 µM | 60 µM |  |  |  | 
Nc1ncnc2c1ncn2[C@@H]1O[C@H](COP(=O)(O)OP(=O)(O)OP(=O)(O)O)[C@@H](O)[C@H]1O [ATP] |  |  |  | 8700 µM | 720 µM | 113 ± 19 µM |  |  |  | Ki (CpdB_Ndom [6]): 5700 µM
C[N+](C)(C)CCOP(=O)(O)OP(=O)([O-])OC[C@H]1O[C@@H](n2ccc(N)nc2=O)[C@H](O)[C@@H]1O [CDP-choline] | 2900 ± 1700 µM | 5.7 ± 3.5 s⁻¹ | 1950 ± 130 M⁻¹ s⁻¹ |  |  |  | 219 µM | 0.51 s⁻¹ | 2300 M⁻¹ s⁻¹ | 
O=[N+]([O-])c1ccc(OP(=O)(O)Oc2ccc([N+](=O)[O-])cc2)cc1 [bis-4-NPP, bis-4-nitrophenylphosphate] | 1300 ± 80 µM | 164 ± 14 s⁻¹ | 130,000 ± 7000 M^−1 s^−1 |  |  |  | 96 µM | 340 s⁻¹ | 3.6 × 10^6 M^−1 s^−1 and 3,600,000 M^−1 s^−1 | Catalytic efficiency (kcat/KM) lower than wild-type mature CpdB (His^117Ala-CpdB): 60 fold; K M (His^117Ala-CpdB): 440 ± 90 µM; k cat (His^117Ala-CpdB): 26 ± 3 s⁻¹; k cat /K M (His^117Ala-CpdB): 60,000 ± 7000 M^−1 s^−1; K M (Tyr^544Ala-CpdB [2]): 430 ± 30 µM; k cat (Tyr^544Ala-CpdB [2]): 130 ± 34 s⁻¹; k cat /K M (Tyr^544Ala-CpdB [2]): 300,000 ± 100,000 M^−1 s^−1; KM increase by the Tyr^544Ala mutation (Tyr^544Ala-CpdB [3]): five-fold
Nc1ncnc2c1ncn2[C@@H]1O[C@@H]2COP(=O)(O)O[C@H]3[C@@H](O)[C@H](n4cnc5c(N)ncnc54)O[C@@H]3COP(=O)(O)O[C@H]2[C@H]1O [c-di-AMP, 3′,5′-cyclic diadenosine monophosphate] | 3400 ± 2200 µM | 0.012 ± 0.007 s⁻¹ | 3.5 ± 0.1 M⁻¹ s⁻¹ |  |  |  | 15 µM | 0.40 s⁻¹ | 29,000 M^−1 s^−1 | 
Nc1nc2c(ncn2[C@@H]2O[C@@H]3COP(=O)(O)O[C@H]4[C@@H](O)[C@H](n5cnc6c(=O)[nH]c(N)nc65)O[C@@H]4COP(=O)(O)O[C@H]3[C@H]2O)c(=O)[nH]1 [c-di-GMP, 3′,5′-cyclic diguanosine monophosphate] | 250 ± 30 µM | 0.0003 ± 0.0001 s⁻¹ | 1.2 ± 0.4 M⁻¹ s⁻¹ |  |  |  | 6 µM | 0.07 s⁻¹ | 13,000 M^−1 s^−1 | 
Nc1ncnc2c1ncn2[C@@H]1O[C@H](COP(=O)(O)O[C@H]2[C@@H](O)[C@H](n3cnc4c(N)ncnc43)O[C@@H]2COP(=O)(O)O)[C@@H](O)[C@H]1O [pApA, 5′-phosphoadenylyl-3′→5′-adenosine] | 230 ± 40 µM | 0.0004 ± 0.0001 s⁻¹ | 1.8 ± 0.2 M⁻¹ s⁻¹ |  |  |  | 0.6 µM | 1.30 s⁻¹ | 2,300,000 M^−1 s^−1 | Stronger loss of catalytic efficiency than on c-di-AMP caused by the deletion of the C domain ([1]; CpdB_Ndom versus mature CpdB): 100 fold
